For ten compounds, logP results are on record in the SangsterLogP compilation.

The series in a line: method code SF-GLC, from DOI: 10.1584/jpestics.5.553.

In the case of `CCOC(=O)C(C(=O)OC(C)C)=C1SCCS1`, the logP came out at 2.9.

In turn, `CCCCCOC(=O)C(C(=O)OCCCCC)=C1SCCS1` returned a logP of 5.6. The value for `CCCOC(=O)C(C(=O)OCCC)=C1SCCS1` was 3.38; that for `COC(=O)C(C(=O)OC)=C1SCCS1` was 1.51; that for `CCCCOC(=O)C(C(=O)OCCCC)=C1SCCS1` was 4.6. `CCCCCCCOC(=O)C(C(=O)OCCCCCCC)=C1SCCS1` came in with a logP of 7.6. Turning to `CC(C)(C)OC(=O)C(C(=O)OC(C)(C)C)=C1SCCS1`, the logP was 4.01. `CCOC(=O)C(C(=O)OCC)=C1SCCS1` registered a logP of 2.45. To `CSC(SC)=C(C(=O)OC(C)C)C(=O)OC(C)C` belongs 3.38; to `CC(C)OC(=O)C(C(=O)OC(C)C)=C1SCCS1=O` (stereo not given), 1.6.
